Experimental data from US20160082087A1, “WHITENING PROMOTING AGENT OR ATOPIC DERMATITIS AMELIORATING AGENT” (NITTA GELATIN INC., priority 2013, published 2016).
Marks after values point to notes of the source that are not given here. Blank lines part the entries; values can stand above or below the molecule they belong to.

How the values were obtained:
Assay type in all cases: cell-based, human
[1] = tested on: endoserine-1 (ET-1); assay: ET-1 expression suppression test (real time PCR); details: 0.5 mM, 24 hours, NHEK (NB), control 1.00, GAPDH corrected
Experimental: (§1) A normal human epidermal keratinocyte NHEK (NB) (available from KURABO INDUSTRIES LTD.) was used. The cells were precultured in HuMedia-KG2 (available from KURABO INDUSTRIES LTD.), and 1.5×10^4 cells/mL×5 mL (7.5×10^4 cells/dish) were cultured in a 60 mm laboratory dish for two days. After confirming that the cells were subconfluent, the medium was replaced by 5 mL of HuMedia-KB2 (available from KURABO INDUSTRIES LTD.). Samples were added in respective concentrations, and allowed to react for 24 hours (ET-1, K10), 48 hours (TGM1, ivl, HAS2), and 72 hours (FLG). Total RNA was extracted from the cells, reverse transcribed, and subjected to real time PCR. In the real time PCR, as target genes, endoserine-1 (ET-1; Hs00174961_m1), keratin 10 (K10; Hs01043114_g1), transglutaminase 1 (TGM1; Hs01070310_m1), involucrin (ivl; Hs00846307_s1), filaggrin (FLG; Hs00856927_g1) and hyaluronic acid synthase 2 (HAS2; Hs00193435_m1) were measured. GAPDH was used as a correction gene. Calculation was conducted by using a calibration curve method, and FAM pigment of TaqMan Gene Expression was used in primers and probes.
(§2) For each peptide or the like of Examples 1 to 13 and Comparative Examples 1 to 27, RNA expression amounts of endoserine-1 (ET-1), keratin 10 (K10), transglutaminase 1 (TGM1), involucrin (ivl), filaggrin (FLG) and hyaluronic acid synthase 2 (HAS2) were measured. Values in the tables are each average value±standard deviation, and *, ** and *** denote that they are significant with P<0.05, P<0.01, and P<0.001, respectively with respect to the control in Paired-t-test.

[2] = tested on: keratin 10 (K10); assay: K10 expression promotion test (real time PCR); details: 0.5 mM, 24 hours, NHEK (NB), control 1.00, GAPDH corrected
Experimental: as §1, §2

[3] = tested on: transglutaminase 1 (TGM1); assay: TGM1 expression promotion test (real time PCR); details: 0.5 mM, 48 hours, NHEK (NB), control 1.00, GAPDH corrected
Experimental: as §1, §2

[4] = tested on: involucrin (ivl); assay: ivl expression promotion test (real time PCR); details: 0.5 mM, 48 hours, NHEK (NB), control 1.00, GAPDH corrected
Experimental: as §1, §2

[5] = tested on: filaggrin (FLG); assay: FLG expression promotion test (real time PCR); details: 0.5 mM, 72 hours, NHEK (NB), control 1.00, GAPDH corrected
Experimental: as §1, §2

[6] = tested on: hyaluronic acid synthase 2 (HAS2); assay: HAS2 expression promotion test (real time PCR); details: 0.5 mM, 48 hours, NHEK (NB), control 1.00, GAPDH corrected
Experimental: as §1, §2

Molecule: N[C@@H](Cc1ccccc1)C(=O)O [Comparative Example 14, L-phenylalanine]
Endoserine-I RNA expression amount [1]: 1.05 ± 0.05
Keratin 10 RNA expression amount [2]: 0.78 ± 0.07
Transglutaminase 1 RNA expression amount [3]: 0.72 ± 0.05**
Involucrin RNA expression amount [4]: 0.87 ± 0.04
Filaggrin RNA expression amount [5]: 0.59 ± 0.05**
Hyaluronic acid synthase 2 RNA expression amount [6]: 0.89 ± 0.84

Transglutaminase 1 RNA expression amount [3]: 0.64 ± 0.01***
Molecule: Pro-Gly [Comparative Example 4]
Endoserine-I RNA expression amount [1]: 1.06 ± 0.10**
Keratin 10 RNA expression amount [2]: 0.89 ± 0.01*
Involucrin RNA expression amount [4]: 0.72 ± 0.02*
Filaggrin RNA expression amount [5]: 0.86 ± 0.18
Hyaluronic acid synthase 2 RNA expression amount [6]: 0.54 ± 0.98*

Transglutaminase 1 RNA expression amount [3]: 3.11 ± 0.02***
Molecule: Pro-Ala-Gly [Example 4]
Endoserine-I RNA expression amount [1]: 0.67 ± 0.01**
Keratin 10 RNA expression amount [2]: 3.98 ± 0.23***
Involucrin RNA expression amount [4]: 2.75 ± 0.03***
Filaggrin RNA expression amount [5]: 5.33 ± 1.25***
Hyaluronic acid synthase 2 RNA expression amount [6]: 2.99 ± 1.03**

Molecule: Glu-Hyp [Example 6]
Endoserine-I RNA expression amount [1]: 0.65 ± 0.02
Keratin 10 RNA expression amount [2]: 3.48 ± 0.05***
Transglutaminase 1 RNA expression amount [3]: 2.12 ± 0.01***
Involucrin RNA expression amount [4]: 1.95 ± 0.08**
Filaggrin RNA expression amount [5]: 3.26 ± 1.61**
Hyaluronic acid synthase 2 RNA expression amount [6]: 2.35 ± 0.85**
